The text below walks through data of ChEMBL document CHEMBL1201862, “PubChem BioAssay data set” (2004).

One data set has as its target T1, Cytochrome P450 1A2 (Homo sapiens, UniProt P05177).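 Further: PubChem cytochrome P450 panel assay, CYP1A2 panel member.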
T1 sequence (P05177 whole entry): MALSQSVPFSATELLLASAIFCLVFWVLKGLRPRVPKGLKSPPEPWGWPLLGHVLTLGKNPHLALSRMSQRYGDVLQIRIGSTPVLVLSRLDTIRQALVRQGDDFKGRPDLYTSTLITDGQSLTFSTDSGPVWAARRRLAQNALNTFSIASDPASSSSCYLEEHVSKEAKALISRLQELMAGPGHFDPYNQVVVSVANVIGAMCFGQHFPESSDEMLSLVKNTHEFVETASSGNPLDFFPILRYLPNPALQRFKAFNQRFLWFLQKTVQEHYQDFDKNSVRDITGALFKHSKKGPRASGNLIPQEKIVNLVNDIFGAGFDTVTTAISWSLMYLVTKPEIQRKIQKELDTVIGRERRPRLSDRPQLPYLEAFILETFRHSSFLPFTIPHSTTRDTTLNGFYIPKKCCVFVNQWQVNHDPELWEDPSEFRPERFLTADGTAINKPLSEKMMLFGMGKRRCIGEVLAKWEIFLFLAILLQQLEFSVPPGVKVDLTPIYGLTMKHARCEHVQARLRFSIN

Another data set concerns the target Cytochrome P450 2C19 (Homo sapiens, UniProt P33261). The data set can be described thus: Cytochrome panel assay with activity outcomes. Panel member name: p450-cyp2c19 Compounds with AC50 equal or less than 10 uM are considered active. It counts as functional.
Another data set deals with Cytochrome P450 2D6 (Homo sapiens, UniProt P10635).
Another data set deals with Cytochrome P450 2C9 (Homo sapiens, UniProt P11712).
Data set [1] can be described thus: viability loss of HMLE_sh_eGFP cells – cell-based, luminescence, counter-screen for HMLE_sh_ECad selective toxicity project, dose response (AID 463074).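 Further: HMLE human mammary epithelial cells expressing control shRNA against eGFP.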 It counts as functional, Homo sapiens. A general note: Counterscreens check selectivity or assay interference.
A short description of data set [2]: Luminescence Cell-Based Dose Retest to Confirm Inhibitors of Cancer Stem Cells. [Related pubchem assays (depositor defined):AID2717, AID2721]. The format is functional. To be noted: Homo sapiens.
Data set [3] concerns the target T2, Dual specificity protein phosphatase 6 (Rattus norvegicus, UniProt Q64346).
T2 sequence (Q64346 whole entry): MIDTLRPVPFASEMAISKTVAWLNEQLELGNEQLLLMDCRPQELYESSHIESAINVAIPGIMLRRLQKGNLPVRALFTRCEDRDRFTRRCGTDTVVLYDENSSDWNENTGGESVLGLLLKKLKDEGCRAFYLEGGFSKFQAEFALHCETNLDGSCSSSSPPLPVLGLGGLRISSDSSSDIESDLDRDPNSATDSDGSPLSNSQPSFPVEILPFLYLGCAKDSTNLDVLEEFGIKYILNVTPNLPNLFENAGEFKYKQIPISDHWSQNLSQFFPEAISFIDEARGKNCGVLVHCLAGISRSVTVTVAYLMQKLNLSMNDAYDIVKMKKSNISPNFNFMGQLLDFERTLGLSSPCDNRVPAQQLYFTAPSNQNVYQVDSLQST

Data set [4] has as its target Glyceraldehyde-3-phosphate dehydrogenase (Homo sapiens, UniProt P04406).
For data set [5], the target named is T3, Tyrosine-protein phosphatase non-receptor type 7 (Homo sapiens, UniProt P35236).
T3 sequence (P35236 whole entry): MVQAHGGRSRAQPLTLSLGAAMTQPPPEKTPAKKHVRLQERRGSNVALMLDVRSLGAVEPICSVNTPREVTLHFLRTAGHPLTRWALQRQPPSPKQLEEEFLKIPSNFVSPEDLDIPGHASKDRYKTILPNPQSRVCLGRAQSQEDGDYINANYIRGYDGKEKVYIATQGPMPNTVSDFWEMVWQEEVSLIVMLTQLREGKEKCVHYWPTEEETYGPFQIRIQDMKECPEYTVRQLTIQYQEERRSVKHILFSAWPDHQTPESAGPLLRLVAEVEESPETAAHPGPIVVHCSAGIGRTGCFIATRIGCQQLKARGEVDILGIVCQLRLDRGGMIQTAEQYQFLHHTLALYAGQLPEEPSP
The format is functional.

For data set [6], the target named is T2, Dual specificity protein phosphatase 6. The format is functional.
In data set [7] the target is T4, Apoptotic protease-activating factor 1 (Homo sapiens, UniProt O14727).
T4 sequence (O14727 whole entry): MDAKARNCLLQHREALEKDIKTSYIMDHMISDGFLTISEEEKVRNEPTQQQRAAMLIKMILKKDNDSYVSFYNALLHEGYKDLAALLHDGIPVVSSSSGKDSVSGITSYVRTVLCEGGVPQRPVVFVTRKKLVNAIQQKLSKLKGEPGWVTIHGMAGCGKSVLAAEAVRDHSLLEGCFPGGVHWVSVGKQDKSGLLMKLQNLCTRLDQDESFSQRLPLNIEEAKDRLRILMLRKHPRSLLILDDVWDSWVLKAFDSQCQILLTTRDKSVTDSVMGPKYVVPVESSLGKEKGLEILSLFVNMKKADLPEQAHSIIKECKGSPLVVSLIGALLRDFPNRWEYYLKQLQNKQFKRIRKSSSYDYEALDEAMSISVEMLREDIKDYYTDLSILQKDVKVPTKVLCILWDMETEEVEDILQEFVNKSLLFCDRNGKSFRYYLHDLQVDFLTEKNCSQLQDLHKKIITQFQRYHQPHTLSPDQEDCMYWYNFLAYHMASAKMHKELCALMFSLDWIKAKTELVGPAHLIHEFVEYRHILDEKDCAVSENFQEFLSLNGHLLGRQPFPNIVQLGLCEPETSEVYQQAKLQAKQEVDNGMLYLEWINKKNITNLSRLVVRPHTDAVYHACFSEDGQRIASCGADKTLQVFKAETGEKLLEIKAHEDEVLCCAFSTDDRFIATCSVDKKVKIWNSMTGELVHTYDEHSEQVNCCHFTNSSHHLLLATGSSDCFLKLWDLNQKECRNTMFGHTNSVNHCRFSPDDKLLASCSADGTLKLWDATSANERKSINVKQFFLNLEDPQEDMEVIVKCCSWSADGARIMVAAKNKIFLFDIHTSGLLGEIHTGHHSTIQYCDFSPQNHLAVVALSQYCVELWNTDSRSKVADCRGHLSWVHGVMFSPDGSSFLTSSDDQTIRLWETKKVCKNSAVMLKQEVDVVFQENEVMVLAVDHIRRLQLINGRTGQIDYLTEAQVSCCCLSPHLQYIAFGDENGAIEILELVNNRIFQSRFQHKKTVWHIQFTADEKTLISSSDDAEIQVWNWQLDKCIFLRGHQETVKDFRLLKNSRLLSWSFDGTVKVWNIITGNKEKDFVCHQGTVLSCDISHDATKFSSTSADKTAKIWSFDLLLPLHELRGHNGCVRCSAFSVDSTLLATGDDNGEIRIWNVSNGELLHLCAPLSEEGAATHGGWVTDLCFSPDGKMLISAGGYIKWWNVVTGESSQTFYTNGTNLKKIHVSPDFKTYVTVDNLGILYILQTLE
The data set can be described thus: activation of Apaf-1 mediated apoptosis – fluorescent, uHTS hits, dose response (AID 588554). The format is functional.

Data set [8] deals with Intestinal-type alkaline phosphatase (Mus musculus, UniProt P24822). Description: PubChem AID 488875. The format is functional.
The target of data set [9] is T5, Intestinal-type alkaline phosphatase (Homo sapiens, UniProt P09923). The data set can be described thus: activation of human intestinal alkaline phosphatase – biochemical, luminescent, uHTS hits, set 2, dose response (AID 488817).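 Further: potency of activators that raise enzyme activity.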 It counts as functional.
Data set [10] has as its target T5, Intestinal-type alkaline phosphatase. The data set can be described thus: human intestinal alkaline phosphatase activators, dose response, biochemical, luminescence, uHTS hits (AID 463120). The format is functional.
Data set [11] deals with T6, Alkaline phosphatase, tissue-nonspecific isozyme (Homo sapiens, UniProt P05186).
T6 sequence (P05186 whole entry): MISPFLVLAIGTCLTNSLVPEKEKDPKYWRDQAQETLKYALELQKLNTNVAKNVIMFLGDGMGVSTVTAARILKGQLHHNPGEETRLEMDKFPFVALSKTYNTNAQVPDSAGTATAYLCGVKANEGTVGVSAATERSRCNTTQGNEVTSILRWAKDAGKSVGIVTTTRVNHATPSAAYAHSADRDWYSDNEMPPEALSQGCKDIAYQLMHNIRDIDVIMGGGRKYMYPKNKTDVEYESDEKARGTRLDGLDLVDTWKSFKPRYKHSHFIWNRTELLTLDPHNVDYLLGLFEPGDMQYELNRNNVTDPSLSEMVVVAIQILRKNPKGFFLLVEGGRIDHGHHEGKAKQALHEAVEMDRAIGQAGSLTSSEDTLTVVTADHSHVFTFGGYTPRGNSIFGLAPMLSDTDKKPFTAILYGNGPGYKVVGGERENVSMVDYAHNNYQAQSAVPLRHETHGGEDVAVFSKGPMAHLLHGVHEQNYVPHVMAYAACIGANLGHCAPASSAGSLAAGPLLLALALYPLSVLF
The data set can be described thus: activation of tissue-nonspecific alkaline phosphatase – biochemical, TNAP isozyme, human IAP uHTS hits, selectivity assay for human IAP activator project, dose response (AID 488886).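 Further: potency of compounds raising TNAP activity as a selectivity check on IAP activators.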 The format is functional.

The target of data set [12] is Lysine-specific demethylase 4A (Homo sapiens, UniProt O75164). Description: inhibition of JMJD2A H3K9me3 demethylation – biochemical, DELFIA europium, cherry-picked samples, selectivity assay for GASC-1 inhibitor project, dose response (AID 488840).
In data set [13] the target is T7, Mannose-6-phosphate isomerase (Homo sapiens, UniProt P34949).
T7 sequence (P34949 whole entry): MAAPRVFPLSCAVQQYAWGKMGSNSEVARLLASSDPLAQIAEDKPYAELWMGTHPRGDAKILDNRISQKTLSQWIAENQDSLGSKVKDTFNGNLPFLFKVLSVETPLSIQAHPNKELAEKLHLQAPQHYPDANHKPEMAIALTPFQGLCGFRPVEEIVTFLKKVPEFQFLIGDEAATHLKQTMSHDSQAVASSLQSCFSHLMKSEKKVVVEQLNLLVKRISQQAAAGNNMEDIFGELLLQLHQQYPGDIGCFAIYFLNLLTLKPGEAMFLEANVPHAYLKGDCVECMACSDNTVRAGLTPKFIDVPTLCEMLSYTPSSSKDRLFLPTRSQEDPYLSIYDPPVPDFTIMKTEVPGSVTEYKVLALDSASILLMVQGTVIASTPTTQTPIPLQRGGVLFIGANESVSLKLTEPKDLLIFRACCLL
The data set can be described thus: MPI inhibition at elevated mannose 6-phosphate – biochemical, fluorescence intensity, high mannose 6-phosphate, primary screen (AID 1220).

Data set [14] has as its target Lysine-specific demethylase 4C (Homo sapiens, UniProt Q9H3R0). Description: inhibition of JMJD2C H3K9me3 demethylation – biochemical, DELFIA europium, cherry-picked samples, dose response (AID 488835). The format is functional.

Activity calls are given as the source filed them. Where only a bound is given, the exact number is not on record here.

T5 sequence (P09923 whole entry): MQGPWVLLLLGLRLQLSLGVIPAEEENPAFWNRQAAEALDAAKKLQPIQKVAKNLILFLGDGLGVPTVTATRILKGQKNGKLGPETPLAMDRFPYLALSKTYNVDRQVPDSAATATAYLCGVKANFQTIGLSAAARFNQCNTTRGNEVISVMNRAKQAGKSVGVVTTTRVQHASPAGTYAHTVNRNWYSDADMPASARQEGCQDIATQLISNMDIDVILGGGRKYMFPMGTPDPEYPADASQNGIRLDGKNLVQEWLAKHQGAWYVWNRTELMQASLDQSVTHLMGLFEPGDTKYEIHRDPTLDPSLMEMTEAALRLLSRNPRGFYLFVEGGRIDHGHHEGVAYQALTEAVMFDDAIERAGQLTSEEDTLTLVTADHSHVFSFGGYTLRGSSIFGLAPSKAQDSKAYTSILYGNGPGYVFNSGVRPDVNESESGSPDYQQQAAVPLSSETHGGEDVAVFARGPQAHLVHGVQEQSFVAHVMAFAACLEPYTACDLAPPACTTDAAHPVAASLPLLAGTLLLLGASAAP
Sequence of Intestinal-type alkaline phosphatase (Mus musculus, UniProt P24822) (P24822 whole entry): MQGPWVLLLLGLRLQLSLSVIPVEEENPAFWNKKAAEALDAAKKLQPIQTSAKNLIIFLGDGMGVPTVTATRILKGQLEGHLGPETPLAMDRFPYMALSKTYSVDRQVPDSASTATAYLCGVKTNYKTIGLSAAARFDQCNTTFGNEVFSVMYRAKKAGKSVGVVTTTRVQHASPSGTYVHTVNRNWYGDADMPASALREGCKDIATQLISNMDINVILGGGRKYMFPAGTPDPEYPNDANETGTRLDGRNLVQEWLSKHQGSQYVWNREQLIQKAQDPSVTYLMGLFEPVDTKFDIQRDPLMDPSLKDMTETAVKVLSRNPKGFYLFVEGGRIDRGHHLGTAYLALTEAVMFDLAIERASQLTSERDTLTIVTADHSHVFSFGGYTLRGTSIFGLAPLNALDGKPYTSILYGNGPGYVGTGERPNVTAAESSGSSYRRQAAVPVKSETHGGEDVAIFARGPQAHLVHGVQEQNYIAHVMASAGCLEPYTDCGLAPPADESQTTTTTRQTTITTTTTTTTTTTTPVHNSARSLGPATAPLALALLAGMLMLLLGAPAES
Sequence of Lysine-specific demethylase 4A (O75164 whole entry): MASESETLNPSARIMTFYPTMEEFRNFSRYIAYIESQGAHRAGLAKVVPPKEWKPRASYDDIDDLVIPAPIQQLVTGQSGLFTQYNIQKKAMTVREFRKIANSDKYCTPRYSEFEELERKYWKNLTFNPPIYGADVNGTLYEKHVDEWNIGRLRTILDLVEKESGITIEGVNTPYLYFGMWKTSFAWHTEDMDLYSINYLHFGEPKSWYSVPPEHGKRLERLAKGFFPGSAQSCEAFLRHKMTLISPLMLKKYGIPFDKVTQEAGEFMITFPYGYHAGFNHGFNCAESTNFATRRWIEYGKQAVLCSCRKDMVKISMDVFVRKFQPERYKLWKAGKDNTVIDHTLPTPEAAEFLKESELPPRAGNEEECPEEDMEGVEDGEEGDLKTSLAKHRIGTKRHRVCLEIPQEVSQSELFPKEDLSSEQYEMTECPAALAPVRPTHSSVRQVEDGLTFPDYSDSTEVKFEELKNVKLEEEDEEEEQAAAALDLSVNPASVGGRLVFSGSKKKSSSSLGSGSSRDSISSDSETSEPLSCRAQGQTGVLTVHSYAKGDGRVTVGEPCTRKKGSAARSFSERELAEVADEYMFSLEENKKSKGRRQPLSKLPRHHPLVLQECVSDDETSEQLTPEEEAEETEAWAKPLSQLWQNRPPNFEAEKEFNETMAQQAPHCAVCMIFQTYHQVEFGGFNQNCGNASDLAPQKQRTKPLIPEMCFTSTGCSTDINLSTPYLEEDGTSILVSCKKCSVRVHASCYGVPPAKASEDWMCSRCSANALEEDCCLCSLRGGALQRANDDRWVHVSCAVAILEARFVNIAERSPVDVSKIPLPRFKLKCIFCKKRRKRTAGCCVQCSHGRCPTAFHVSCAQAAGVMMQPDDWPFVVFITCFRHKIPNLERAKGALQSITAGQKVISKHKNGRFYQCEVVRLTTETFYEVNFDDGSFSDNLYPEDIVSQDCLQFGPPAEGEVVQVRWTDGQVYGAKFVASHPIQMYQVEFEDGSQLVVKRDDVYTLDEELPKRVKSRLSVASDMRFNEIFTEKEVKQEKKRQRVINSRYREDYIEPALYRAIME
Sequence of Lysine-specific demethylase 4C (Q9H3R0 whole entry): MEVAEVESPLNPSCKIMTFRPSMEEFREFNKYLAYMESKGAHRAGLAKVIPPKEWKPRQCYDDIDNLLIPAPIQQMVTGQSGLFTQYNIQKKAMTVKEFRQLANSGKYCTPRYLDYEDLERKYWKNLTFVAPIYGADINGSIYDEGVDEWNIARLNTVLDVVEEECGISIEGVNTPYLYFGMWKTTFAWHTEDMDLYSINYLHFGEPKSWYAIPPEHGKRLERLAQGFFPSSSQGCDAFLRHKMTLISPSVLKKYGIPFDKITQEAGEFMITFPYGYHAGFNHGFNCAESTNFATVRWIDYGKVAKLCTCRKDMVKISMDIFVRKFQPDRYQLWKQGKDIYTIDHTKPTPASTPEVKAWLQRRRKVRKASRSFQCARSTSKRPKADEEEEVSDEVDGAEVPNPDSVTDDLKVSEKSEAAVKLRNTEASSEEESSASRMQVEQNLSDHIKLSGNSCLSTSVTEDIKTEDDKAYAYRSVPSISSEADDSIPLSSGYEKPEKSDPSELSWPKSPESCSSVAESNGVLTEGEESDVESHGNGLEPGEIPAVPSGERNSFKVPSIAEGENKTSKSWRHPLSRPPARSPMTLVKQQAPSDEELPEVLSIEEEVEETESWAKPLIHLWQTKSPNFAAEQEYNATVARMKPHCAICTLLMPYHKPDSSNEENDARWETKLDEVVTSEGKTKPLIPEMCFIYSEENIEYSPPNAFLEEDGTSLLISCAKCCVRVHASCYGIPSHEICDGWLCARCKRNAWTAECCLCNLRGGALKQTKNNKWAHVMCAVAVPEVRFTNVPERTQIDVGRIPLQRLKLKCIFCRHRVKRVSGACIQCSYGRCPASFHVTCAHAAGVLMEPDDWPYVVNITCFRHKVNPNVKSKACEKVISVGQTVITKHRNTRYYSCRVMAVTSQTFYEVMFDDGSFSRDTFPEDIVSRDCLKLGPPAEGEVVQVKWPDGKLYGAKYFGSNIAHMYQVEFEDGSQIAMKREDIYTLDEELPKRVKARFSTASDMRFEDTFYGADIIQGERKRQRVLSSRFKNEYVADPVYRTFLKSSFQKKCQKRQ
Sequence of Cytochrome P450 2D6 (P10635 whole entry): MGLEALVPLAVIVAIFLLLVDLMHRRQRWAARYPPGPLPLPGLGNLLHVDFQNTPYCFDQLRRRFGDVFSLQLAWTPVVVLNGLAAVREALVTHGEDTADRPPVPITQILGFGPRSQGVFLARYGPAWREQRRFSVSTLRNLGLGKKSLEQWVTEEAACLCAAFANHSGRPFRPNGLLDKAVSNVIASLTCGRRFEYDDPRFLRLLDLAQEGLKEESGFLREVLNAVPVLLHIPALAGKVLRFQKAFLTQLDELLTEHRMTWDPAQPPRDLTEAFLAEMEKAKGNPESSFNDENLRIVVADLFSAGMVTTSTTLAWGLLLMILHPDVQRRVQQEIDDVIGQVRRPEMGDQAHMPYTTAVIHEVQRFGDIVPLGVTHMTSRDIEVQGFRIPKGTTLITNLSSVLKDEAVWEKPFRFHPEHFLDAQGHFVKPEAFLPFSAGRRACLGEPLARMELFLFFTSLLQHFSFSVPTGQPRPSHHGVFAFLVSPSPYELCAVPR
Sequence of Cytochrome P450 2C19 (P33261 whole entry): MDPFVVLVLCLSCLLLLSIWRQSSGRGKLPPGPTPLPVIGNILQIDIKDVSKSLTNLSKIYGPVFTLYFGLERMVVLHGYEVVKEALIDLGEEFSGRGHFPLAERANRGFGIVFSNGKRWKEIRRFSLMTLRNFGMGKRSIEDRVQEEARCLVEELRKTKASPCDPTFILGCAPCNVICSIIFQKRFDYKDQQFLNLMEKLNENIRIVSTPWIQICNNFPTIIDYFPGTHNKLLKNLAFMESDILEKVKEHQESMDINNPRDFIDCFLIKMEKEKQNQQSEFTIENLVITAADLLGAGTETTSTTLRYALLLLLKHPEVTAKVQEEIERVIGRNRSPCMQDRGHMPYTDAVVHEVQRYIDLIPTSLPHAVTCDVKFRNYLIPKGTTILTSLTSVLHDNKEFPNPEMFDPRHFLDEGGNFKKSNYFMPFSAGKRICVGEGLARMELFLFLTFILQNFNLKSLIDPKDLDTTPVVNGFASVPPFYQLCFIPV
Sequence of Glyceraldehyde-3-phosphate dehydrogenase (P04406 whole entry): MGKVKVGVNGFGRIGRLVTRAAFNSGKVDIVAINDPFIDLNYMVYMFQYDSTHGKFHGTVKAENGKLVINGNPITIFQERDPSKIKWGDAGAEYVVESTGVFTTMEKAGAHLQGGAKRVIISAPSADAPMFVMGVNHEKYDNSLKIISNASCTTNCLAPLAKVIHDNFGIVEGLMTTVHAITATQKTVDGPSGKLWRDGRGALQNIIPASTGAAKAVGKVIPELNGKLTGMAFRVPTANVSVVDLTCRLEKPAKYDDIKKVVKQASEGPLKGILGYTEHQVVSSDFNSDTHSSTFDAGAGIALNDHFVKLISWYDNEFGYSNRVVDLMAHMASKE
Sequence of Cytochrome P450 2C9 (P11712 whole entry): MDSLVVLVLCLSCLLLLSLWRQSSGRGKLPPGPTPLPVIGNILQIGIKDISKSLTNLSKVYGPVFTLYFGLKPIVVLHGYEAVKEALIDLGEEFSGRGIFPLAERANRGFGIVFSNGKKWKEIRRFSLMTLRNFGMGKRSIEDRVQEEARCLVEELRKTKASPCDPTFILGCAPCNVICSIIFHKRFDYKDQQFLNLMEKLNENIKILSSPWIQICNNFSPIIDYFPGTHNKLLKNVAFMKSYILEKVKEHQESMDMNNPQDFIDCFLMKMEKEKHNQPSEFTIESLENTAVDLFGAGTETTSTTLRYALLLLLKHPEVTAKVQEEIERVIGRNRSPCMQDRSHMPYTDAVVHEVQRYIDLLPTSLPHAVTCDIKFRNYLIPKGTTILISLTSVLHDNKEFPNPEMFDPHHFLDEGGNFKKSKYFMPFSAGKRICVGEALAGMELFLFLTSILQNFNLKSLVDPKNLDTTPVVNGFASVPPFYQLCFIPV

By AC50 is commonly meant the concentration at which the activity in the assay is half-maximal. In the case of `O=C(c1cc(C(F)(F)F)cc(C(F)(F)F)c1)N1CCC2(CC1)CN(c1ncccn1)C2`, the AC50 entry at Cytochrome P450 1A2, at Cytochrome P450 2C19, at Cytochrome P450 2D6 and on Cytochrome P450 2C9 was “inconclusive” throughout.

Consider `O=C(CCS(=O)(=O)c1ccccc1)Nc1nc(-c2ccc(F)cc2)cs1`, for which the AC50 in [1] was 143 µM (active); in data set [2] it was 10.4 µM (active).

What is called IC50 is the concentration that inhibits the measured activity by half. Turning to `O=c1nc(NCCc2ccccc2)[nH]c(=O)n1-c1ccccc1`, the IC50 is > 100 µM (inactive) in data set [3], > 100 µM (not active) in data set [4], > 100 µM (not active) in [5] and > 100 µM (inactive) in [6].

Broadly, the EC50 is the midpoint of the concentration-response curve. In the case of `Cc1cc(C)n(CC(C)C(=O)O)n1` (stereo not drawn), in [7], the EC50 was 10.9 µM (active).

On to `CC(C)(C)NC(=O)C(=O)NNC(=O)COc1ccccc1`, for which the EC50 in data set [8] is > 100 µM (inactive); in [9] it was 28.4 µM (active); in [10], 28 µM (active); in data set [11], 36.4 µM (active).

For the compound `Cc1ccc2[nH]c(=O)c(C=C3C(=O)NC(=O)NC3=O)cc2c1`, the figures for the AC50 in [12] and in [14] were 26.9 µM (active) and 46.5 µM (active), respectively. Moreover, the IC50 in data set [13] is given as > 50 µM (not active).
